The text below walks through data of patent US10093706B2, “Dominant positive hnRNP-E1 polypeptide compositions and methods” (Indiana University Research and Technology Corporation, priority 2017, dated 2018).

In data set [1] the target is hnRNP-E1 binding to folate receptor mRNA and hnRNP-E1 mRNA cis-element (Homo sapiens, UniProt Q15365). As to conditions: physiologically relevant thiols; cited from earlier work.
The target in data set [2] is T1, RNA-protein complexes of GST-hnRNP-E1 and 25-nt hnRNP-E1 mRNA cis-element (Homo sapiens, UniProt Q15365, A205V).
T1 construct: made in house; host or cells: Escherichia coli BL21
T1 sequence (Q15365 whole entry A205V, one chain of several): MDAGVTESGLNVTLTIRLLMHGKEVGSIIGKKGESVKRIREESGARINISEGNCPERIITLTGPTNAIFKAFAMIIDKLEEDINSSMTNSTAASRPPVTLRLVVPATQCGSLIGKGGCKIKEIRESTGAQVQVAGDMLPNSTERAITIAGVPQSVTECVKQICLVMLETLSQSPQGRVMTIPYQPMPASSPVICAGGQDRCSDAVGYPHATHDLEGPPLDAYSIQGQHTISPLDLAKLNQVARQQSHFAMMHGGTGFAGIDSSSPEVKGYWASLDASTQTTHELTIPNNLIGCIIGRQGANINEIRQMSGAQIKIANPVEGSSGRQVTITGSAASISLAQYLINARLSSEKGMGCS
In words: Gel-shift assay: effect of thiols, iron and deferoxamine on RNA-protein complex formation. Type of data set: binding. The note with it: 100-μM thiol.

Data set [3] addresses T1, RNA-protein complexes of GST-hnRNP-E1 and 25-nt hnRNP-E1 mRNA cis-element. The description is as above. The note with it: fixed L-homocysteine. Format: binding. How it is done:
Other studies assessed the effect of iron(II) or iron(III) on homocysteine-induced RNA-protein interactions.
Studies were conducted to evaluate the effect of iron(II) (as ferrous sulfate heptahydrate) or iron(III) (as ferric chloride hexahydrate) in modulating RNA-protein interactions during gel-shift assays in either the absence or presence of 10-mM glutathione. The iron preparation, either alone or with 50-μM of deferoxamine (DFO) to define the specificity of iron(II), was incubated first with glutathione and hnRNP-E1 before addition of other components of the reaction mixture. […] The samples were analyzed by PAGE and autoradiography overnight followed by densitometric analysis of the signals representing RNA-protein complexes.

Another data set concerns hnRNP-E1 mRNA. Put plainly: In vitro translation of hnRNP-E1. Type of data set: biochemical, human. As to conditions: agent added to translation mixture (4.1-mM ß-ME). How it is done:
In vitro transcription-translation was carried out using the Linked SP6/T7 In Vitro Transcription/Translation Kit (Roche Applied Science) after addition of one of various targeted DNAs—pSPT18-25-hnRNP-E1 DNA, or Pst1-linearized plasmid pSPT18-folate receptor-α, or HPV16 L2 DNA, (0.5 μg/reaction)—to the transcription mix as described. In other experiments, the capacity for perturbing the interaction of hnRNP-E1 with the 25-nt hnRNP-E1 cis-element during in vitro translation was assessed in the presence of either scrambled oligonucleotides (5′-[…]-3′ SEQ ID NO:20) or specific antisense oligonucleotides (5′-[…]-3′ SEQ ID NO:21) generated against the 25-nt hnRNP-E1 mRNA cis-element (GenScript USA, Piscataway, N.J.).

Data set [4] concerns newly synthesized [^35S]hnRNP-E1 in placental 1584-HF cells. Put plainly: Biosynthetic rate of hnRNP-E1 after oligonucleotide transfection into placental 1584-HF cells. Type of data set: cell-based, human. As to conditions: oligonucleotide transfected into placental 1584-HF cells. From the text:
On the day before transfection, placental 1584-HF cells were trypsinized, counted, and plated in 6-well plates at 2×10^5 cells per well in 2.5-mL of MEM-HF medium, so that cells would be 70-80% confluent after overnight culture. Cells were then transfected with either wild-type, or scrambled DNA, or antisense DNA to 25-nt hnRNP-E1 cis-element using Lipofectamine 2000 DNA transfection reagent and the manufacturer's protocol. One well of cells was trypsinized and harvested on day-3 (2 days after transfection) as a control. Cells in the remaining 5 wells were starved of cysteine using cysteine-free MEM-HF for 4-h following which the rate of biosynthesis of hnRNP-E1 protein was determined in transfected cells by specifically immunoprecipitating and quantifying newly synthesized [^35S]hnRNP-E1.

hnRNP-E1 binding to folate receptor mRNA and hnRNP-E1 mRNA cis-element, sequence (Q15365 whole entry): as the sequence (Q15365 whole entry A205V, one chain of several) above, with V205A counted along it

Turning to `NC(CCS)C(=O)O` (racemic) [DL-homocysteine], the “hnRNP-E1 activation and mRNA-binding” value in data set [1] is on record as “far less”.

Take `O[C@H](CS)[C@H](O)CS` (racemic) [dithiothreitol]: the “RNA-protein signals relative to L-homocysteine” value in data set [2] was “much stronger RNA-protein signals”.

On to `N[C@H](CCS)C(=O)O` [D-homocysteine], for which the “hnRNP-E1 activation and mRNA-binding” value in data set [1] was “did not have any effect”.

With `N[C@@H](CS)C(=O)O` [L-Cysteine, L-cysteine], the “RNA-protein signals relative to L-homocysteine” value in data set [2] was “far weaker”. Besides, the “hnRNP-E1 activation and mRNA-binding” value in data set [1] was “far less”.

On to `N[C@@H](CCC(=O)N[C@@H](CS)C(=O)NCC(=O)O)C(=O)O` [glutathione], for which the “RNA-protein signals relative to L-homocysteine” value in data set [2] is listed as “no detectable signals”. Moreover, in data set [1], the “hnRNP-E1 activation and mRNA-binding” value was “far less”.

`NC1CCSC1=O` (stereo not shown) [homocysteine thiolactone]: in data set [1], the “hnRNP-E1 activation and mRNA-binding” value is on record as “far less”.

In the case of `O.O.O.O.O.O.[Cl-].[Cl-].[Cl-].[Fe+3]` [iron(III), ferric chloride hexahydrate], the “effect on RNA-complex formation” value in data set [3] (10-mM glutathione) is “comparable dose-dependent reduction in RNA-complex formation”. Moreover, in data set [3] (no glutathione), the “effect on formation of RNA-protein complexes” value was “no such influence”.

With `CSCC[C@H](N)C(=O)O` [methionine], the “RNA-protein signals relative to L-homocysteine” value in data set [2] is reported as “no detectable signals”. Besides, in data set [1], the “hnRNP-E1 activation and mRNA-binding” value is “did not have any effect”.

Regarding `OCCS` [ß-ME, ß-mercaptoethanol], the “RNA-protein signals relative to L-homocysteine” value in data set [2] is “much stronger RNA-protein signals”.

As for “Antisense: antisense oligonucleotides (5′-GGG AGC GAG CGG GCG GGA G-3′ SEQ ID NO:21) against the 25-nt hnRNP-E1 mRNA cis-element (antisense GGGAGCGAGCGGGCGGGAG; chemistry not given here)”, the “effect on in vitro translation of hnRNP-E1” value with hnRNP-E1 mRNA was “dose-dependent inhibition of translation of hnRNP-E1”. In addition, the “[^35S]cysteine-hnRNP-E1 protein” value came to 0.62 ± 0.02 b fmol/mg protein/h in data set [4] and 0.62 fmol/mg protein/h in data set [4] (listed as antisense oligonucleotides).

For “Scrambled: scrambled oligonucleotides (5′-GCGTCGCTCGCTTCGCACGTGCGCC-3′ SEQ ID NO:20) (GCGTCGCTCGCTTCGCACGTGCGCC; chemistry not given here)”, in the data set with hnRNP-E1 mRNA, the “effect on in vitro translation of hnRNP-E1” value is “failed to quench the translation of hnRNP-E1”. Further, the “[^35S]cysteine-hnRNP-E1 protein” value is 1.01 ± 0.03 a fmol/mg protein/h in data set [4] and 1.0 fmol/mg protein/h in data set [4] (listed as scrambled-oligonucleotides).
